Test results taken from patent US12145931B2, “Substituted pyrrolo[2,3-c]quinolines as antimalarials” (COUNCIL OF SCIENTIFIC AND INDUSTRIAL RESEARCH, priority 2018, dated 2024).

Tests used:
[1] = test system: Plasmodium falciparum 3D7 strain; assay: Anti-malarial screen, parasite growth by SybrGreen staining; format: cell-based; conditions: 60 hours incubation, triplicates; for inhibition at 10 µM / EC50: Plasmodium falciparum, 3D7; for EC50: serial dilution from 10 μM to 1 nM
Method: Plasmodium falciparum 3D7 strain from Malaria Research and Reference Reagent Resource Center (ID NO: MRA-102). Plasmodium falciparum (3D7) is cultured in the laboratory as per standard protocols [AzarRadfar, Darío Méndez, Carlos Moneriz, María Linares, Patricia Marín-García, Antonio Puyet, AmaliaDiez & José M Bautista. Synchronous culture of Plasmodium falciparum at high parasitemia levels Nature Protocols 2009, 4, 1899-1915]. When the parasitemia (i.e., percent infection of human RBCs) reaches >15%, 1 mL of culture suspension is layered over 10 mL of 60% percoll (pH and osmolality adjusted using PBS) and centrifuged at 3000 rpm for 5 min using a swing out rotor. This separates late stage parasite (trophozoite and schizont) infected RBC (as a band on top of the percoll cushion) from early stage parasite (ring) infected and uninfected RBCs (as pellet at the bottom of the percoll cushion). The >90% enriched late stage parasite infected RBCs are collected, washed with complete RPMI media and added to a 2% hematocrit RBC suspension such that the final parasitemia is around 2%. The parasites grow in a synchronous manner for at least 2 rounds of asexual cycle (48 hours). This culture is then used for anti-malarial screening as given below.
200 μL of ring stage parasite culture at ˜2% parasitemia (see above) is added to each well in a 96 well plate pre-seeded with the compound of interest at the required concentration. 1 mM and 10 mM stocks dilutions of the compounds are prepared in cell culture grade DMSO, and the final concentration used in the assay is either 10 μM (for identifying molecules affecting parasite growth) or a serial dilution from 10 μM to 1 nM (for estimating the dose response and EC50 value). All compounds are plated in triplicates as biological replicates. Each 96 well plate also includes negative control (compound untreated & DMSO only treated culture) and positive control (standard anti-malarial compounds treated culture). […] After plating, the culture is incubated in standard growth condition for 60 hours, after which the cultures are processed for testing the effect of compounds on parasite growth as given below.
The inventors have standardized a SybrGreen dye based staining protocol for estimating parasite growth, which is a modification of previously published protocol [Plouffe et. al, 2008]. SybrGreen dye binds to DNA and only the DNA bound dye gives a specific fluorescence emission ([…]) when excited ([…]). Since only the parasites have DNA (as human RBCs are devoid of nucleus), the SybrGreensignal is a direct indictor of parasite growth. A standard fluorescent plate reader issued for assay read out, and the staining is done as follows. 25 μL of 10× stock containing of dye and Triton X100 (0.5%) is added to each of 200 μL culture growing in a 96 well plate and mixed well and incubated for 15 min-30 min before reading fluorescence emission using the plate reader at the appropriate wavelength.

[2] = 10 μM compound, ring stage culture ~2% parasitemia

SMILES | inhibition at 10 µM [1, 2] [%] | EC50 [1] [µM] | melting point [°C] | Average % growth Inhibition [1, 2] [%]
CCN(CC)Cc1nc2ccccc2c2cc[nH]c12 [Ib, N-((3H-pyrrolo[2,3-c]quinolin-4-yl)methyl)-N-ethylethanamine] | 97 | 8.58 |  | 
COc1ccc(N(C)Cc2nc3ccccc3c3cc[nH]c23)cc1 [Il, N-((3H-pyrrolo[2,3-c]quinolin-4-yl)methyl)-4-methoxy-N-methylaniline] | 94.1 | 0.74 |  | 
CCN(CC)CCCC(C)N(C)Cc1nc2ccccc2c2cc[nH]c12 (stereo not drawn) [Im, N^4-((3H-pyrrolo [2,3-c]quinolin-4-yl)methyl)-N^1,N^1-diethyl-N^4-methylpentane-1,4-diamine] | 98.5 | 0.17 |  | 
c1ccc(N(Cc2nc3ccccc3c3cc[nH]c23)Cc2nc3ccccc3c3cc[nH]c23)cc1 [Ij, N,N-bis((3H-pyrrolo[2,3-c]quinolin-4-yl)methyl)aniline] | 84.1 | > 10 | 242 to 244 | 
CN(Cc1nc2ccccc2c2ccn(S(=O)(=O)c3ccccc3)c12)c1ccccc1 [Ie, N-methyl-N-((3-(phenylsulfonyl)-3H-pyrrolo[2,3-c]quinolin-4-yl)methyl)aniline] | 55.5 | > 10 | 146 to 148 | 
CN(Cc1nc2ccccc2c2cc[nH]c12)c1ccccc1 [If, N-((3H-pyrrolo[2,3-c]quinolin-4-yl)methyl)-N-methyl aniline] | 89.9 | 8.72 | 139 to 141 | 
O=Cc1nc2ccccc2c2ccn(S(=O)(=O)c3ccccc3)c12 [Compound of formula 3, 3-(phenylsulfonyl)-3H-Pyrrolo[2,3-c]quinoline-4-carbaldehyde] | 88.3 | > 10 |  | 
c1ccc2c(c1)nc(CN1CCOCC1)c1[nH]ccc12 [Ih, 4-((3H-pyrrolo[2,3-c]quinolin-4-yl)methyl)morpholine] | 86.8 | 1.99 | 148 to 150 | 
O=S(=O)(c1ccccc1)n1ccc2c3ccccc3nc(CN(CCO)CCO)c21 [Ic] | 93.6 | > 10 | 98 to 99 | 
O=S(=O)(c1ccccc1)n1ccc2c3ccccc3nc(CN(Cc3nc4ccccc4c4ccn(S(=O)(=O)c5ccccc5)c34)c3ccccc3)c21 [Ii, N,N-bis((3-(phenylsulfonyl)-3H-pyrrolo[2,3-c]quinolin-4-yl)methyl)aniline] | 88.3 | > 10 | 188 to 190 | 
OCCN(CCO)Cc1nc2ccccc2c2cc[nH]c12 [Id] | 91.5 | 4.48 |  | 
O=c1c2ccccc2ncn1Cc1nc2ccccc2c2cc[nH]c12 [NCLite-M1, (3-((3H)-pyrrolo[2,3-c]quinoline-4-yl)methyl)quinazolin-4(3H)-one, reference compound] |  |  |  | 9.18
CCN(CC)Cc1nc2ccccc2c2ccn(S(=O)(=O)c3ccccc3)c12 [Ia, N-ethyl-N-((3-(phenylsulfonyl)-3H-pyrrolo [2,3-c]quinolin-4-yl)methyl)ethanamine] | 99.7 | 0.27 |  | 
Cc1nc2ccccc2c2[nH]ccc12 [In, 4-methyl-1H-pyrrolo[3,2-c]quinoline] | 99.1 | 3.7 |  | 
COc1ccc(N(C)Cc2nc3ccccc3c3ccn(S(=O)(=O)c4ccccc4)c23)cc1 [Ik, 4-methoxy-N-methyl-N-((3-(phenylsulfonyl)-3H-pyrrolo[2,3-c]quinolin-4-yl)methyl)aniline] | 90.2 | > 10 | 48 to 50 | 
O=S(=O)(c1ccccc1)n1ccc2c3ccccc3nc(CN3CCOCC3)c21 [Ig, 4-((3-(phenylsulfonyl)-3H-Pyrrolo[2,3-c]quinolin-4-yl)methyl)morpholine] | 79.4 | 7.86 | 138 to 140 | 
